Measured values published in patent publication US20200289521A1, “USE OF VITAMIN K IN COMBINATION WITH ANTICOAGULANTS” (KAYDENCE PHARMA AS, priority 2019, published 2020).

How the values were obtained:
[1] = tested on: whole-blood thrombogenicity; assay: T-TAS Total Thrombus-formation Analysis of whole blood from treated Sprague-Dawley rats; type: in vivo
Experimental: (§1) This experiment was conducted in order to evaluate the effects of vitamin K2 (MK-7) on the anticoagulant activity of the new oral anticoagulants (NOAC) rivaroxaban and dabigatran using the T-TAS Total Thrombus-formation Analysis System. The T-TAS Total Thrombus-formation Analysis System is a microchip-based flow chamber system capable of evaluating whole-blood thrombogenicity. It is a useful tool in monitoring the efficacy of anticoagulants on thrombus formation and predicting the risk of bleeding complications. To perform the study, 45 wild-type male Sprague-Dawley and 45 transgenic male Ren-2 rats [TGR(mREN-2)27] at the age of 10-11 weeks at the beginning of the treatment period were purchased from animal facility IKEM-CEM Institute of Clinical and Experimental Medicine (Prague, Czech Republic). All animals in the experiment were housed in individually ventilated cages (2-3 rats per cage) and kept in the animal rooms of JCET at a relative humidity of 55±10%, a temperature of 22±2° C., and a light cycle of 7 AM to 7 PM. The rats had free access to food and water. After delivery, animals were randomly divided into 10 experimental groups (5 or 10 rats per group), as indicated below in Table 1. Four days before the start of the treatment, the first part of animals' body weight and food intake was measured in selected representative three cages (rats n=9) to calculate the appropriate amount of tested compounds required for addition to the diet to obtain the dosing indicated in Table 1. It was estimated that food intake was approximately 30 g of chow per rat per day. The animals were fed for two weeks with AIN-93G diet supplemented with rivaroxaban or dabigatran with/without Vitamin K2 (MK-7), as indicated in Table 1. The animals were then anesthetized in order to draw blood samples for further analysis. The body mass of the rats was measured at the beginning and at the end of treatment. At the beginning and at the end of treatment, the food intake per day was measured in representative group of animals to monitor the daily dosing of tested compounds (per kg of body mass). The thrombus formation in vitro was measured in whole blood using a microchip-based flow chamber system according to manufacturers' protocol (Total Thrombus-formation Analyser System, T-TAS; Fujimori Kogyo Co., Ltd., Tokyo, Japan). For the analysis, citrated whole blood (480 μl) was mixed with 20 μl of 300 mM CaCl2 solution containing 1.25 mg/ml CTI (Corn Trypsin Inhibitor). […] The obtained flow pressure pattern for each sample was used to analyze thrombus formation based on the following estimated parameters: […]

VSMCs [2] = assay: Hypoxia (CoCl2) induced oxidative stress in VSMCs (DCFDA); type: cell-based; conditions: 50 μM CoCl2 for 19 hours; test substance 10 μM; 6 hours
Experimental: This study was performed to determine whether intracellular oxidative stress in VSCMs is derived from mitochondrial dysfunction. To perform this study, VSMCs were incubated with cobalt chloride, a known stabilizer of HIF1a. Cobalt chloride binding to HIF1a prevents the degradation of HIF1a and thus results in a cellular hypoxia state. HIF1a has been implicated in cancer biology as well as a number of other pathophysiologies, specifically in areas of vascularization and angiogenesis, energy metabolism, cell survival, and tumor invasion. Under normal circumstances, after injury, HIF1a is degraded by the enzyme prolyl hydroxylase (PHD). The continued up-regulation of HIF1a (mimicked by cobalt chloride) promotes tumor growth and metastasis through its role in initiating angiogenesis and regulating cellular metabolism to overcome hypoxia. Hypoxia promotes apoptosis in both normal and tumor cells. Additionally, hypoxia generates significant intracellular oxidative stress.
To perform the study, VSMCs (10,000 cells/well) were plated in a 96-well plate and left to adhere overnight. Next, the medium was changed to a medium supplemented with 50 μM CoCl2 for 19 hours. The next day, cells were washed and incubated for 1 hour with 20 μM DCFDA in the presence of a vehicle (solvent for CoCl2 and vitamin K2 (MK-7)/UQ10), 10 μM vitamin K2 (MK-7), or 10 μM UQ10 in medium. The medium was then changed to a medium supplemented with vehicle, vitamin K2 (MK-7)/UQ10, or CoCl2, and fluorescent was measured for 6 hours. Fluorescence intensity was normalized for cell count.

VSMCs [3] = assay: Oxidative stress in VSMCs (DCFDA to DCF fluorescence); type: cell-based; conditions: 10 μM, fluorescence measured for 6 hours
Experimental: It is known that the level of reactive oxygen species in cells can be measured by measuring the conversion of 2′,7′-dichlorofluorescein diacetate (DCFDA) to the fluorescent dye 2′,7′-dichlorofluorescein (DCF). The fluorescence generated by cells subjected to DCFDA is directly proportional to the amount of oxidized DCFDA to DCF.
To perform the study, VSMCs (10,000 cells/well) were plated in a 96-well plate and left to adhere overnight. Next, cells were incubated for 1 hour with 20 μM DCFDA. The medium was then changed to medium supplemented with 10 μM vitamin K2 (MK-7). To visualize intracellular oxidative stress, fluorescence was measured for 6 hours and fluorescence intensity was normalized for cell count.

VSMCs [4] = assay: Hypoxia-induced ATP decrease, co-treatment with CoCl2 (luminescence); type: cell-based; conditions: co-treatment CoCl2 100 μM and 10 μM test substance, 24 hours
Experimental: This study was performed to investigate whether vitamin K2 (MK-7) can prevent the hypoxia-induced decrease in ATP (CoCl2 treatment, thereby stabilization of HIF1a). To perform this study, VSMCs were co-treated with CoCl2 and vitamin K2 (MK-7).
First, VSCMs (5000 cells/well) were plated in 96-well plates and left to adhere overnight. Next, cells were incubated for 24 hours with either CoCl2 (100 μM) or CoCl2 and vitamin K2 (MK-7) or UQ10 together (100 and 10 μM, respectively). Next, ATP was measured and corrected for cell numbers. CoCl2 values were set as relative to CoCl2 co-treated with vitamin K2 (MK-7) or UQ10. Hoechst was added to correct for cell number (1 μg/mL). Next, ATP was measured using mammalian lysis buffer for 5 minutes after which 50 μL ATP substrate solution was added to the wells and incubated for 10 minutes in a dark environment. Finally, medium was transferred to a white plate to measure luminescence.

[5] = tested on: whole-blood thrombogenicity; assay: T-TAS Total Thrombus-formation Analysis of whole blood from treated TGR rats; type: in vivo, transgenic Ren-2 rats [TGR(mREN-2)27]
Experimental: as §1

VSMCs [6] = assay: ATP over time in VSMCs with vitamin K2 (luminescence); type: cell-based; conditions: 10 μM, indicated time points
Experimental: To perform this study, first, VSCMs (5000 cells/well) were plated in 96-well plates and left to adhere overnight. Next, cells were incubated for indicated time points with vitamin K2 (MK-7) (10 μM). Hoechst was added to correct for cell number (1 μg/mL). Next, ATP was measured using mammalian lysis buffer for 5 minutes, after which 50 μL ATP substrate solution was added to the wells and incubated for 10 minutes in a dark environment. Finally, medium was transferred to a white plate to measure luminescence.

With `CC(C)=CCC/C(C)=C/CC/C(C)=C/CC/C(C)=C/CC/C(C)=C/CC/C(C)=C/CC/C(C)=C/CC1=C(C)C(=O)c2ccccc2C1=O` [vitamin K2 (MK-7)] the “increase of occlusion Time (OT) by addition of vitamin K2 (MK-7)” value ([1]; added to dabigatran and to rivaroxaban) was 5-7%, the “formation of a clot (AUC)” value ([1]; vitamin K2 (MK-7) added to dabigatran or rivaroxaban) was “did not prevent the formation of a clot” and the “hypoxia induced oxidative stress” value (VSMCs [2]) was “seems to counteract hypoxia induced oxidative stress”. The “oxidative stress (DCF fluorescence normalized for cell count)” value (VSMCs [3]) was “clearly reduced the oxidative stress”, the “hypoxia-induced decrease in ATP generation” value (VSMCs [4]) was “could (partially) prevent the decreased ATP generation” and the “effect of vitamin K2 (MK-7) on inhibition of thrombus formation by dabigatran and rivaroxaban” value [5] was “did not modify this effect significantly”. The “ATP production over time” value (VSMCs [6]) was “stimulated ATP production”.
